Values after ≈ are worked out from the molar mass of the structure shown.

Holding throughout (assay): microbe, parasite or virus in culture
The test system of assay [1] is Xanthomonas oryzae pv. oryzae Xoo. The note with it: read-out: EC50 (mg/L) Xoo.
Assay [2] deals with Xanthomonas oryzae pv. oryzicola Xoc. The note with it: read-out: EC50 (mg/L) Xoc.
For assay [3], the system named is Xanthomonas oryzae pv. oryzae Xoo. The note with it: for inhibition at 10 µg/mL: read-out: Inhibition (%) 10 (mg/L); for inhibition at 50 µg/mL: read-out: Inhibition (%) 50 (mg/L).
Assay [4] concerns Xanthomonas oryzae pv. oryzicola Xoc. Conditions: for inhibition at 10 µg/mL: read-out: Inhibition (%) 10 (mg/L); for inhibition at 50 µg/mL: read-out: Inhibition (%) 50 (mg/L).

As to `Cc1ccc(C(=O)NCc2nnc(S(C)(=O)=O)o2)cc1` [compound 20, 4-methyl-N-((5-(methylsulfonyl)-1,3,4-oxadiazol-2-yl)methyl)benzamide], the EC50 in assay [1] stood at 0.63 ± 0.06 mg/L (≈ 2.13 µM); in assay [2], 1.66 ± 0.21 mg/L (≈ 5.62 µM). Besides, the inhibition at 10 µg/mL in assay [3] was found to be 99.4 ± 0.3%; in assay [4], 67.8 ± 6.8%. The inhibition at 50 µg/mL came to 99.6 ± 0.3% in assay [3] and 99 ± 0.9% in assay [4].

In the case of `CS(=O)(=O)c1nnc(CNC(=O)c2ccc(C(F)(F)F)cc2)o1` [compound 22, N-((5-(methylsulfonyl)-1,3,4-oxadiazol-2-yl)methyl)-4-(trifluoromethyl)benz amide], the EC50 in assay [1] stood at 0.72 ± 0.05 mg/L (≈ 2.06 µM); in assay [2], 1.7 ± 0.09 mg/L (≈ 4.87 µM). The inhibition at 10 µg/mL in assay [3] was 99.7 ± 0.2%; in assay [4] it was 90.3 ± 5.5%. Besides, the inhibition at 50 µg/mL in assay [3] was found to be 99.9 ± 0.1%; in assay [4], 99.3 ± 0.3%.

As for `CS(=O)(=O)c1nnc(CNC(=O)c2ccc(F)cc2F)o1` [compound 23, 2,4-difluoro-N-((5-(methylsulfonyl)-1,3,4-oxadiazol-2-yl)methyl)benzamide], the EC50 in assay [1] came out at 0.8 ± 0.09 mg/L (≈ 2.52 µM); in assay [2] it was 7.41 ± 1.3 mg/L (≈ 23.4 µM). Moreover, the results for the inhibition at 10 µg/mL in assay [3] and in assay [4] were 95.7 ± 1.9% and 69.6 ± 1.8%, respectively. In addition, the inhibition at 50 µg/mL in assay [3] turned out to be 95.4 ± 0.4%; in assay [4] it was 99.5 ± 0.4%.

For `CS(=O)(=O)c1nnc(CNC(=O)c2ccc(Cl)s2)o1` [compound 3, 5-chloro-N-((5-(methylsulfonyl)-1,3,4-oxadiazol-2-yl)methyl)thiophene-2-car boxamide], the EC50 was found to be 0.53 ± 0.07 mg/L (≈ 1.65 µM) in assay [1] and 1.06 ± 0.04 mg/L (≈ 3.29 µM) in assay [2]. Further, the inhibition at 10 µg/mL came to 98.6 ± 0.8% in assay [3] and 98 ± 0.2% in assay [4]. In addition, the inhibition at 50 µg/mL in assay [3] worked out at 95.8 ± 2.6%; in assay [4] it was 98.3 ± 1.3%.

Turning to `Cc1ccc(C(=O)NCc2nnc(S(C)(=O)=O)o2)c(C)c1` [compound 18, 2,4-dimethyl-N-((5-(methylsulfonyl)-1,3,4-oxadiazol-2-yl)methyl)benzamide], the EC50 came to 0.69 ± 0.04 mg/L (≈ 2.23 µM) in assay [1] and 1.74 ± 0.11 mg/L (≈ 5.62 µM) in assay [2]. Moreover, the inhibition at 10 µg/mL in assay [3] amounted to 98.8 ± 0.2%; in assay [4], 98.9 ± 1%. Further, the inhibition at 50 µg/mL in assay [3] stood at 98.2 ± 1.4%; in assay [4], 96.9 ± 0.2%.
